Measurements taken from patent publication US20060063784A1, “Method of using substituted pyrazolo [1,5-a] pyrimidines” (priority 2004, published 2006).

The compounds below were run on 80S14 (p21-deficient) cells (assay: Cytotoxicity assay using isogenic cell lines: IC50 in 80S14 (p21-deficient) cells, SRB). Conditions: 80S14 p21-deficient cells, 5 days incubation, SRB; read-out: IC50 for 80SI4.
Assay type: cell-based, human
Method in brief: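 80S14 (p21-deficient) cells seeded at 12,000 cells/well overnight, then exposed 5 days at 37 °C to serial dilutions (5 pM–50 μM or 170 pg/ml–10 μg/ml). TCA-fixed, sulforhodamine B-stained, absorbance at 560 nm; IC50 taken from cytotoxicity curves versus untreated controls.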

| SMILES | IC50 |
| --- | --- |
| CC(C)(C)C(=O)NCC(=O)Nc1cccc(-c2ccnc3c(C(=O)c4cccs4)cnn23)c1 [Example 132] | 1 to 10 µM |
| CCCCCNC(=O)NCC(=O)Nc1cccc(-c2ccnc3c(C(=O)c4cccs4)cnn23)c1 [Example 136, N-2-[(pentylamino)carbonyl]-N-1-{3-[3-(thien-2-ylcarbonyl)pyrazolo[1,5-a]pyrimidin-7-yl]phenyl}gylcinamide] | 10 to 50 µM |

Same assay, conditions: Homo sapiens, 80S14, 120 h, read-out: IC50 for 80S14 (uM)

| SMILES | IC50 |
| --- | --- |
| CC(C)(C)C(=O)Nc1cccc(-c2ccnc3c(C(=O)c4ccco4)cnn23)c1 [Example 243, N-[3-[3-(2-Furanylcarbonyl)pyrazolo-[1,5-a]pyrimidin-7-yl]phenyl}-2,2-dimethyl-propanamide] | 1 to 10 µM |

Same assay, conditions: Homo sapiens, 120 h; 80S14 (p21-deficient) cells, 5 days, SRB; class symbols; read-out: IC50 for 80S14

| SMILES | IC50 |
| --- | --- |
| O=C(c1cccs1)c1cnn2c(-c3cccc(NC(=O)C4CO4)c3)ccnc12 (stereo not drawn) [Example 277, N-{3-[3-(2-Thienylcarbonyl)pyrazolo[1,5-a]pyrimidin-7-yl]phenyl}-2-oxiranecarboxamide] | < 1 µM |
| COc1ccc(-c2ccnc3c(C(=O)c4cccs4)cnn23)c(OC)c1 [Example 246, [7-(2,4-dimethoxyphenyl)pyrazolo[1,5-a]-pyrimidin-3-yl}-2-thienyl-methanone] | 10 to 50 µM |
| CCN(C(=O)C1CC1)c1cccc(-c2ccnc3c(Cl)cnn23)c1 [Example 255, N-[3-(3-Chloropyrazolo[1,5-a]pyrimidin-7-yl)phenyl]-N-ethyl-cyclopropanecarboxamide] | 10 to 50 µM |
| O=C(c1cccs1)c1cnn2c(-c3cccc(NC/C=C/c4ccccc4)c3)ccnc12 [Example 412, [7-(3-{[(2E)-3-Phenylprop-2-enyl]amino}phenyl)pyrazolo[1,5-a]pyrimidin-3-yl] (thien-2-yl)methanone] | 10 to 50 µM |
| O=C(Nc1cccc(-c2ccnc3c(C(=O)c4cccs4)cnn23)c1)OCc1ccncc1 [Example 416, Pyridin-4-ylmethyl 3-[3-(thien-2-ylcarbonyl)pyrazolo[1,5-a]pyrimidin-7-yl]phenylcarbamate] | < 1 µM |

Same assay, conditions: Homo sapiens, 120 h; 80S14 p21-deficient cells, 5 days incubation, SRB; read-out: IC50 for 80SI4

| SMILES | IC50 |
| --- | --- |
| CCC(CC)C(=O)NCC(=O)Nc1cccc(-c2ccnc3c(C(=O)c4cccs4)cnn23)c1 [Example 131, 2-ethyl-N-[2-oxo-2-({3-[3-(thien-2-ylcarbonyl)pyrazolo[1,5-a]pyrimidin-7-yl]phenyl}amino)ethyl]butanamide] | 10 to 50 µM |
| O=C(Cc1ccc(F)cc1)Nc1cccc(-c2ccnc3c(C(=O)c4cccs4)cnn23)c1 [Example 109, 2-(4-fluorophenyl)-N-{3-[3-(thien-2-ylcarbonyl)pyrazolo[1,5-a]pyrimidin-7-yl]phenyl}acetamide] | < 1 µM |
| CSCCC(=O)Nc1cccc(-c2ccnc3c(C(=O)c4cccs4)cnn23)c1 [Example 50, 3-(methylthio)-N-{3-[3-(thien-2-ylcarbonyl)pyrazolo[1,5-a]pyrimidin-7-yl]phenyl}propanamide] | < 1 µM |
| O=C(Cc1ccc(Cl)cc1)Nc1cccc(-c2ccnc3c(C(=O)c4cccs4)cnn23)c1 [Example 108, 2-(4-chlorophenyl)-N-{3-[3-(thien-2-ylcarbonyl)pyrazolo[1,5-a]pyrimidin-7-yl]phenyl}acetamide] | < 1 µM |
| C=CCOC(=O)NCC(=O)Nc1cccc(-c2ccnc3c(C(=O)c4cccs4)cnn23)c1 [Example 124, allyl 2-oxo-2-({3-[3-(thien-2-ylcarbonyl)pyrazolo[1,5-a)pyrimidin-7-yl]phenyl}amino)ethylcarbamate] | 10 to 50 µM |
| O=C(Cc1ccccc1)Nc1cccc(-c2ccnc3c(C(=O)c4cccs4)cnn23)c1 [Example 105, 2-phenyl-N-{3-[3-(thien-2-ylcarbonyl)pyrazolo[1,5-a]pyrimidin-7-yl]phenyl}acetamide] | < 1 µM |
| O=C(Nc1cccc(-c2ccnc3c(C(=O)c4cccs4)cnn23)c1)N[C@H]1C[C@@H]1c1ccccc1 [Example 12, N-[(1S,2R)-2-phenylcyclopropyl]-N′-{3-[3-(thien-2-ylcarbonyl)pyrazolo[1,5-a]pyrimidin-7-yl]phenyl}urea] | < 1 µM |
